Data set [1] addresses T1, cell-to-cell fusion mediated by HIV-1 Env and CD4 (Human immunodeficiency virus type 1 group M subtype B, UniProt P04578).
T1 construct: expressed in transfected cells; host or cells: HeLa CD4 LTR beta-gal cells (CD4) co-cultured with HL2/3 cells (HIV-1 Env)
It counts as cell-based. As to conditions: TC50/IC50. The method, then: The fusion assay assesses the ability of compounds to block cell-to-cell fusion mediated by HIV-1 Env and CD4 expressed on separate cells. This assay is sensitive to inhibitors of both the gp120/CD4 interaction and inhibitors of the X4 coreceptor. First, 5×10^3 HeLa CD4 LTR […]-gal cells are placed in microtiter wells and incubated overnight. The following day the media is removed and the HeLa CD4 LTR […]-gal cells are incubated for 1 h at 37° C. in fresh media with test compound. Following the incubation 5×10^3 HL2/3 cells are added and the incubation continued for 40 to 48 h. At 40 to 48 h […]-galactosidase enzyme expression is detected by chemiluminescence (Tropix Gal-screen™, Tropix, Bedford, Mass.). Compound toxicity is monitored on a sister plate using XTT dye reduction.

The subject of another data set is HSV-2. The experiment in a line: Genital HSV prevention test in the mouse model. It counts as in vivo. The method, then: The efficacy of SPL-7013 was tested in a genital HSV prevention test in the mouse (strain MS) model. A dose of 15 μl of 100 mg/ml, or 10 mg/ml of the compound was instilled into the vagina of 16 animals 20 sec before HSV-2 infection. […] Total mortality in three days of the same number of control infected mice was used as an end-point of the tests.

Data set [2] deals with viral strains of Herpes virus-2 resistant to modified nucleoside based antiviral agents. As to conditions: cell tests.
Data set [3] has as its system human papillomavirus type 6b VLPs. The experiment in a line: Inhibition of uptake of HPV virus-like particles into A431 cells (flow cytometry). The format is cell-based. The method, then:
The compound was evaluated for its ability to inhibit the binding and uptake of human papillomavirus virus-like particles to a human epithelial cell line.
The compound was tested at a range of six dilutions as inhibitor of binding and of uptake of Papillomavirus fluorochrome-tagged Virus-Like-Particles (VLPs) of human papillomavirus type 6b. […] Assay of binding and uptake was determined using flow cytometry and inhibition of binding was reported as a percentage with respect to the binding observed in the absence of inhibitor. The tests were performed in two independent assays
Cells. The human epidermoid carcinoma cell line A431 was purchased from the American Type Culture Collection at passage 30 (CRL-1555, Batch F-13530) and maintained in DMEM in 10% FCS.
Human papillomavirus type 6b VLPs were grown and purified according to standard operating procedures. Particles were labelled with a fluorochrome.
The compound was re-dissolved in sterile water to the concentrations of 5 mM and used fresh for the first assay before being frozen at −20° C. It was then thawed for the second assay.
A T75 flask of A431 cells was washed with 10 ml of PBS/EDTA (0.05%) for 5 minutes at 37° C. before being treated with 2 ml trypsin for a further 5 minutes at 37° C. […]
Results were analysed using WinLisT. […]

The next data set has as its system HeLa CD4 LTR […]-gal cells. The experiment in a line: XTT toxicity on sister plate of the attachment assay. It counts as cell-based. The method, then: This assay is designed to detect compounds that interact with the cell and block virus attachment, and/or compounds which interact with the forming attachment/fusion complex. The attachment assay is performed with HeLa CD4 LTR […]-gal cells. HeLa CD4 LTR […]-gal cells are routinely cultured with the required selection antibiotics. Twenty-four h prior to initiation of the assay the cells are trypsinized, counted and 1×10^4 cells placed in a 0.2 cm well in media without selection antibiotics. At 24 h media is removed and compound in media placed on the cells and incubated for 15 min at 37° C. A known titer of the IIIB strain of HIV is then added to the wells and the incubation continued for 1 h. At the end of the incubation the wells are washed 3 times with media and the culture continued for 40 to 48 h. At termination of the assay, media is removed and […]-galactosidase enzyme expression determined by chemiluminescence per manufacturers instructions (Tropix Gal-screen™, Bedford Mass.) by a single step chemiluminescent method using a single solution to lyse the cells and detect […]-galactosidase enzyme activity. Compound toxicity is monitored on a sister plate by XTT dye reduction. […] The virus adsorption interval of 1 h is sufficiently short that AZT, which requires phosphorylation to its active tri-phosphate form (AZT-TTP), is not active in this assay.
For orientation: Formazan colour is commonly taken as a measure of viable cells.

[4] abbreviates: 100 mg/ml intravaginal, 20 sec. prior to infection.

Here are results for one substance from patent US8158575B2, “Agent for the prevention and treatment of sexually transmitted diseases-I” (priority 2001, dated 2012).

“And” between values parts separate entries of the source, which are not always exact repeats. Equal entries are not always repeated.

For the substance “BHAlyslys2lys4lys8lys16[NH—CO—CH2)O-3,6-Naphthyl-(SO3Na)2]32 [SPL-7013]”, in data set [1], the “Fusion Assay TI” value is on record as greater than 141. Further, in the data set on HSV-2 (10 mg/ml intravaginal, 20 sec. prior to infection), the “Animals Protected Against Infection (%)” value is listed as 10/12 (83%). Besides, in the data set on HSV-2 (setting [4]), the “Animals Protected Against Disease (%)” value is 11/11 (100%) and 12/12 (100%); the “Animals Protected Against Infection (%)” value is 11/11 (100% and 12/12 (100%. For the same substance, in the data set on HSV-2 (15 μl of 100 mg/ml or 10 mg/ml intravaginal 20 sec before HSV-2 infection), the “Prevention of HSV-2 infection and disease (in words)” value is “prevented infection and disease in all animals tested”. In addition, the “Activity against resistant Herpes virus-2 strains (in words)” value in data set [2] is recorded as “shown activity”. For the same substance, the “Uptake of VLPs at maximal inhibition (% of VLPs alone)” value in data set [3] (1 μM, HPV 6b VLPs) is 26%. Also, in data set [3] (at 1 μM and 10 nM), the “Uptake inhibition (in words)” value is recorded as “shown uptake inhibition”. In addition, in the data set with HeLa CD4 LTR […]-gal cells, the “Attachment Assay TC50” value was greater than 100 µg/mL.
